Source: patent US20260266848A1, “COMPOSITIONS AND METHODS FOR DIAGNOSING AND TREATING DYSTONIA” (Duke University, priority 2023, published 2026)

System: DYT-TOR1A MEF EVs
Test: Quantitative LC-MS/MS proteomics of EVs from drug-treated DYT-TOR1A MEF cultures (ritonavir, salubrinal)
Format: cell-based, mouse
Conditions: 20 μM, 24 h

O=C(/C=C/c1ccccc1)NC(NC(=S)Nc1cccc2cccnc12)C(Cl)(Cl)Cl (stereo not drawn) [salubrinal]
DYT disrupted proteins (n=363) with significant corrective effects of salubrinal: 13% | total EV proteins significantly modified by salubrinal (of 1974 proteins): 9% | Acaa1a (ACAA1) EV abundance Log2_FC (DYT1+Sal/DYT1): −0.8007 | Ano6 (ANO6) EV abundance Log2_FC (DYT1+Sal/DYT1): −0.3535 | Ap1b1 (AP1B1) EV abundance Log2_FC (DYT1+Sal/DYT1): 0.5874 | Ar18b (ARL8B) EV abundance Log2_FC (DYT1+Sal/DYT1): −0.08283 | Bzw2 (BZW2) EV abundance Log2_FC (DYT1+Sal/DYT1): −0.03057 | Cryab (CRYAB) EV abundance Log2_FC (DYT1+Sal/DYT1): 1.025 | DIst (DLST) EV abundance Log2_FC (DYT1+Sal/DYT1): −0.5172 | Ehd4 (EHD4) EV abundance Log2_FC (DYT1+Sal/DYT1): −0.149 | Flna (FLNA) EV abundance Log2_FC (DYT1+Sal/DYT1): −0.07088 | Fscn1 (FSCN1) EV abundance Log2_FC (DYT1+Sal/DYT1): −0.1414 | Gart (GART) EV abundance Log2_FC (DYT1+Sal/DYT1): 0.05776 | Hist1h1b (H1-5) EV abundance Log2_FC (DYT1+Sal/DYT1): −0.1163 | Hnrnpc (HNRNPC) EV abundance Log2_FC (DYT1+Sal/DYT1): −0.2845 | Ipo9 (IPO9) EV abundance Log2_FC (DYT1+Sal/DYT1): 0.3059 | Jam3 (JAM3) EV abundance Log2_FC (DYT1+Sal/DYT1): −0.6132 | Lipg (LIPG) EV abundance Log2_FC (DYT1+Sal/DYT1): −0.4507 | Lrrc59 (LRRC59) EV abundance Log2_FC (DYT1+Sal/DYT1): −0.4226 | Mapk3 (MAPK3) EV abundance Log2_FC (DYT1+Sal/DYT1): 0.6764 | Mars (MARS1) EV abundance Log2_FC (DYT1+Sal/DYT1): −0.1637 | Mrc2 (MRC2) EV abundance Log2_FC (DYT1+Sal/DYT1): 0.01917 | Myh9 (MYH9) EV abundance Log2_FC (DYT1+Sal/DYT1): −0.2742 | Ndnf (NDNF) EV abundance Log2_FC (DYT1+Sal/DYT1): −0.5746 | Pcmt1 (PCMT1) EV abundance Log2_FC (DYT1+Sal/DYT1): 1.133 | Pi4ka (PI4KA) EV abundance Log2_FC (DYT1+Sal/DYT1): −1.039 | Pitpnb (PITPNB) EV abundance Log2_FC (DYT1+Sal/DYT1): 0.09822 | Prpsap2 (PRPSAP2) EV abundance Log2_FC (DYT1+Sal/DYT1): −0.0814 | Psmc5 (PSMC5) EV abundance Log2_FC (DYT1+Sal/DYT1): 0.4458 | Psmd12 (PSMD12) EV abundance Log2_FC (DYT1+Sal/DYT1): −0.203 | Psme4 (PSME4) EV abundance Log2_FC (DYT1+Sal/DYT1): −0.2099 | Ptma (PTMA) EV abundance Log2_FC (DYT1+Sal/DYT1): 1.235 | Rap2b (RAP2B) EV abundance Log2_FC (DYT1+Sal/DYT1): −0.3288 | Rbm3 (RBM3) EV abundance Log2_FC (DYT1+Sal/DYT1): 0.84 | Rhoa (RHOA) EV abundance Log2_FC (DYT1+Sal/DYT1): 0.2121 | Rpl10 (RPL10) EV abundance Log2_FC (DYT1+Sal/DYT1): −0.05107 | Rpl13a (RPL13A) EV abundance Log2_FC (DYT1+Sal/DYT1): −0.1384 | Rps13 (RPS13) EV abundance Log2_FC (DYT1+Sal/DYT1): 0.02541 | Sec31a (SEC31A) EV abundance Log2_FC (DYT1+Sal/DYT1): 0.1051 | Slc2a1 (SLC2A1) EV abundance Log2_FC (DYT1+Sal/DYT1): 0.1088 | Stom (STOM) EV abundance Log2_FC (DYT1+Sal/DYT1): 0.01864 | Tardbp (TARDBP) EV abundance Log2_FC (DYT1+Sal/DYT1): 0.4388 | Tgfb2 (TGFB2) EV abundance Log2_FC (DYT1+Sal/DYT1): 0.3062 | Tln1 (TLN1) EV abundance Log2_FC (DYT1+Sal/DYT1): −0.1915 | Tln2 (TLN2) EV abundance Log2_FC (DYT1+Sal/DYT1): −0.3236 | Tubb1 (TUBB1) EV abundance Log2_FC (DYT1+Sal/DYT1): −0.6949 | Usp7 (USP7) EV abundance Log2_FC (DYT1+Sal/DYT1): 1.365 | Wdr26 (WDR26) EV abundance Log2_FC (DYT1+Sal/DYT1): −0.03177 | Zyx (ZYX) EV abundance Log2_FC (DYT1+Sal/DYT1): −0.2196 | Acaa1a (ACAA1) EV abundance Log2_FC (DYT1/DYT1+Sal (inverse ratio)): 0.8007 | Ano6 (ANO6) EV abundance Log2_FC (DYT1/DYT1+Sal (inverse ratio)): 0.3535 | Ap1b1 (AP1B1) EV abundance Log2_FC (DYT1/DYT1+Sal (inverse ratio)): −0.5874 | Arl8b (ARL8B) EV abundance Log2_FC (DYT1/DYT1+Sal (inverse ratio)): 0.08283 | Bzw2 (BZW2) EV abundance Log2_FC (DYT1/DYT1+Sal (inverse ratio)): 0.03057 | Cryab (CRYAB) EV abundance Log2_FC (DYT1/DYT1+Sal (inverse ratio)): −1.025 | DIst (DLST) EV abundance Log2_FC (DYT1/DYT1+Sal (inverse ratio)): 0.5172 | Ehd4 (EHD4) EV abundance Log2_FC (DYT1/DYT1+Sal (inverse ratio)): 0.149 | Flna (FLNA) EV abundance Log2_FC (DYT1/DYT1+Sal (inverse ratio)): 0.07088 | Fscn1 (FSCN1) EV abundance Log2_FC (DYT1/DYT1+Sal (inverse ratio)): 0.1414 | Gart (GART) EV abundance Log2_FC (DYT1/DYT1+Sal (inverse ratio)): −0.05776 | Hist1h1b (H1-5) EV abundance Log2_FC (DYT1/DYT1+Sal (inverse ratio)): 0.1163 | Hnrnpc (HNRNPC) EV abundance Log2_FC (DYT1/DYT1+Sal (inverse ratio)): 0.2845 | Ipo9 (IPO9) EV abundance Log2_FC (DYT1/DYT1+Sal (inverse ratio)): −0.3059 | Jam3 (JAM3) EV abundance Log2_FC (DYT1/DYT1+Sal (inverse ratio)): 0.6132 | Lipg (LIPG) EV abundance Log2_FC (DYT1/DYT1+Sal (inverse ratio)): 0.4507 | Lrrc59 (LRRC59) EV abundance Log2_FC (DYT1/DYT1+Sal (inverse ratio)): 0.4226 | Mapk3 (MAPK3) EV abundance Log2_FC (DYT1/DYT1+Sal (inverse ratio)): −0.6764 | Mars (MARS1) EV abundance Log2_FC (DYT1/DYT1+Sal (inverse ratio)): 0.1637 | Mrc2 (MRC2) EV abundance Log2_FC (DYT1/DYT1+Sal (inverse ratio)): −0.01917 | Myh9 (MYH9) EV abundance Log2_FC (DYT1/DYT1+Sal (inverse ratio)): 0.2742 | Ndnf (NDNF) EV abundance Log2_FC (DYT1/DYT1+Sal (inverse ratio)): 0.5746 | Pcmt1 (PCMT1) EV abundance Log2_FC (DYT1/DYT1+Sal (inverse ratio)): −1.133 | Pi4ka (PI4KA) EV abundance Log2_FC (DYT1/DYT1+Sal (inverse ratio)): 1.039 | Pitpnb (PITPNB) EV abundance Log2_FC (DYT1/DYT1+Sal (inverse ratio)): −0.09822 | Prpsap2 (PRPSAP2) EV abundance Log2_FC (DYT1/DYT1+Sal (inverse ratio)): 0.0814 | Psmc5 (PSMC5) EV abundance Log2_FC (DYT1/DYT1+Sal (inverse ratio)): −0.4458 | Psmd12 (PSMD12) EV abundance Log2_FC (DYT1/DYT1+Sal (inverse ratio)): 0.203 | Psme4 (PSME4) EV abundance Log2_FC (DYT1/DYT1+Sal (inverse ratio)): 0.2099 | Ptma (PTMA) EV abundance Log2_FC (DYT1/DYT1+Sal (inverse ratio)): −1.235 | Rap2b (RAP2B) EV abundance Log2_FC (DYT1/DYT1+Sal (inverse ratio)): 0.3288 | Rbm3 (RBM3) EV abundance Log2_FC (DYT1/DYT1+Sal (inverse ratio)): −0.84 | Rhoa (RHOA) EV abundance Log2_FC (DYT1/DYT1+Sal (inverse ratio)): −0.2121 | Rpl10 (RPL10) EV abundance Log2_FC (DYT1/DYT1+Sal (inverse ratio)): 0.05107 | Rpl13a (RPL13A) EV abundance Log2_FC (DYT1/DYT1+Sal (inverse ratio)): 0.1384 | Rps13 (RPS13) EV abundance Log2_FC (DYT1/DYT1+Sal (inverse ratio)): −0.02541 | Sec31a (SEC31A) EV abundance Log2_FC (DYT1/DYT1+Sal (inverse ratio)): −0.1051 | Slc2a1 (SLC2A1) EV abundance Log2_FC (DYT1/DYT1+Sal (inverse ratio)): −0.1088 | Stom (STOM) EV abundance Log2_FC (DYT1/DYT1+Sal (inverse ratio)): −0.01864 | Tardbp (TARDBP) EV abundance Log2_FC (DYT1/DYT1+Sal (inverse ratio)): −0.4388 | Tgfb2 (TGFB2) EV abundance Log2_FC (DYT1/DYT1+Sal (inverse ratio)): −0.3062 | Tln1 (TLN1) EV abundance Log2_FC (DYT1/DYT1+Sal (inverse ratio)): 0.1915 | Tln2 (TLN2) EV abundance Log2_FC (DYT1/DYT1+Sal (inverse ratio)): 0.3236 | Tubb1 (TUBB1) EV abundance Log2_FC (DYT1/DYT1+Sal (inverse ratio)): 0.6949 | Usp7 (USP7) EV abundance Log2_FC (DYT1/DYT1+Sal (inverse ratio)): −1.365 | Wdr26 (WDR26) EV abundance Log2_FC (DYT1/DYT1+Sal (inverse ratio)): 0.03177 | Zyx (ZYX) EV abundance Log2_FC (DYT1/DYT1+Sal (inverse ratio)): 0.2196
